Patent US8795634B2, “Absorption of therapeutic agents across mucosal membranes or the skin” (Critical Pharmaceuticals Limited, priority 2008, dated 2014)

Tests used:
[1] = Blood glucose after intranasal insulin with Solutol HS15 or its individual components (Example 8); type: in vivo, male Sprague Dawley rats; details: insulin 4 IU/kg intranasal; PEG 600 10% w/v, PEG-HSA 10% w/v, HSA 0.37%, HSA-PEG-HSA 2%
Procedure: The PEG-HSA and HSA-PEG-HSA were prepared by refluxing polyethylene glycol 600 (PEG 600) and 12-Hydroxystearic acid (HSA) under argon at 120° C. using methane sulfonic acid. All chemicals were purchased from Sigma Aldrich.
Four components were tested in vivo. The following components were dissolved into 0.063M phosphate buffer at the concentrations below: • PEG 600—10% w/v solution • PEG-HSA—10% w/v Solution • HSA—0.37% solution • HSA-PEG-HSA—2% solution
The lower concentrations of HSA and HSA-PEG-HSA were used due to restricted solubility of these materials.
The components dissolved in phosphate buffer were then used to prepare 1 mg/mL insulin solutions and administered intranasally to male Sprague Dawley rats at a rate of 4 IU/kg. All formulations were administered with a Gilson pipette and the tip was inserted approximately 5 mm into the nostril. The animals were housed in limited access rooms where the temperature and humidity were maintained at 21° C.±2° C. and 55%±15% relative respectively; the rooms were lit with artificial light for 12 hours each day. Blood samples were collected from the tail vein of the rats at 0 min (Pre-dose) and 5, 15, 30, 60 and 120 minutes after administration into heparinized tubes, centrifuged and the plasma collected. Blood glucose was measured immediately at each sampling point using a one touch Ultra 2 glucose meter (LifeScan, UK).

[2] = Blood glucose after intranasal insulin in Solutol HS15 solutions (Example 1); type: in vivo, Sprague Dawley rats; details: control insulin solutions, without Solutol HS15
Procedure: The formulations were then administered intranasally to Sprague Dawley rats at 4 IU/kg and blood samples taken at frequent intervals up to 2 hours after administration. Blood glucose was measured using a standard glucose meter and insulin determined in the plasma by an enzyme linked immunosorbant assay (ELISA).
A group of rats was also administered with insulin dissolved in PBS via subcutaneous injection as comparison to the intranasal doses.

Row | Molecule | drop in blood glucose levels [1] | decrease in plasma glucose levels [2]
1 | CCCCCCC(O)CCCCCCCCCCC(=O)O (centres unmarked) [HSA, 12-Hydroxystearic acid] | did not | –
2 | insulin: Insulin (available from Sigma-Aldrich) | – | 15%
